Tests used:
[1] = test system: S. pneumoniae 1/1; experiment: checkerboard synergy assay with iclaprim; assay type: cell-based, Streptococcus pneumoniae; conditions: antibiotic in combination with iclaprim
[2] = test system: S. pneumoniae 1/1; experiment: MIC determination; assay type: cell-based, Streptococcus pneumoniae; conditions: S. pneumoniae 1/1, 18 hours at 37° C., 5% CO2; for MIC: Streptococcus pneumoniae, read-out: Minimum inhibitory concentrations (MIC)
[3] = test system: Staphylococcus aureus ATCC 25923; experiment: MIC determination; assay type: cell-based; conditions: S. aureus 25923, 18 hours at 37° C.; for MIC: Staphylococcus aureus, ATCC25923, read-out: Minimum inhibitory concentrations (MIC)
Summary of the method: (§1)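 Visible-growth endpoint after 18 h, 37 °C. Cation-adjusted Mueller-Hinton broth was used for K. pneumoniae and S. aureus in ambient air; H. influenzae (HTM) and M. catarrhalis (Brain Heart Infusion) were incubated under 5% CO2.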

[4] = test system: Moraxella catarrhalis RA 21; experiment: MIC determination; assay type: cell-based; conditions: M. catarrhalis RA 21, 18 hours at 37° C., 5% CO2; for MIC: Moraxella catarrhalis, RA21, read-out: Minimum inhibitory concentrations (MIC)
Summary of the method: as §1

[5] = test system: Klebsiella pneumoniae ATCC 33495; experiment: MIC determination; assay type: cell-based; conditions: K. pneumonia 33495, 18 hours at 37° C.; for MIC: Klebsiella pneumoniae, ATCC33495, read-out: Minimum inhibitory concentrations (MIC)
Summary of the method: as §1

[6] = test system: Streptococcus pneumoniae ATCC 49619; experiment: MIC determination; assay type: cell-based; conditions: S. pneumoniae 49619, 18 hours at 37° C., 5% CO2; for MIC: Streptococcus pneumoniae, ATCC49619, read-out: Minimum inhibitory concentrations (MIC)
[7] = test system: Haemophilus influenzae ATCC 49766; experiment: MIC determination; assay type: cell-based; conditions: H. Influenza 49766, 18 hours at 37° C., 5% CO2; for MIC: Haemophilus influenzae, ATCC49766, read-out: Minimum inhibitory concentrations (MIC)
Summary of the method: as §1

[8] = test system: S. aureus 101; experiment: MIC determination; assay type: cell-based, Staphylococcus aureus; conditions: for MIC: Staphylococcus aureus, 101, 18 h, read-out: Minimum inhibitory concentrations (MIC)
Summary of the method: as §1

[9] = test system: S. aureus 101; experiment: checkerboard synergy assay with iclaprim; assay type: cell-based, Staphylococcus aureus; conditions: antibiotic in combination with iclaprim
[10] = test system: Staphylococcus aureus ATCC 25923; experiment: checkerboard synergy assay with iclaprim; assay type: cell-based; conditions: antibiotic in combination with iclaprim; S. aureus 25923
[11] = test system: Moraxella catarrhalis RA 21; experiment: checkerboard synergy assay with iclaprim; assay type: cell-based; conditions: antibiotic in combination with iclaprim; M. catarrhalis RA 21
[12] = test system: Klebsiella pneumoniae ATCC 33495; experiment: checkerboard synergy assay with iclaprim; assay type: cell-based; conditions: antibiotic in combination with iclaprim; K. pneumoniae 33495
[13] = test system: Streptococcus pneumoniae ATCC 49619; experiment: checkerboard synergy assay with iclaprim; assay type: cell-based; conditions: antibiotic in combination with iclaprim; S. pneumoniae 49619
[14] = test system: Haemophilus influenzae ATCC 49766; experiment: checkerboard synergy assay with iclaprim; assay type: cell-based; conditions: antibiotic in combination with iclaprim; H. influenzae 49766

Row | Compound | Σ FIC [1] | MIC [2] [µg/mL] | MIC [3] [µg/mL] | MIC [4] [µg/mL] | MIC [5] [µg/mL] | MIC [6] [µg/mL] | MIC [7] [µg/mL] | MIC [8] [µg/mL] | Σ FIC [9] | Σ FIC [10] | Con (Conclusion) [11] | Σ FIC [11] | Con (Conclusion) [12] | Σ FIC [12] | Σ FIC [13] | Con (Conclusion) [14] | Σ FIC [14] | other results
1 | [H]/N=C(/N)N[C@H]1[C@H](O)[C@@H](O)[C@H](O[C@@H]2O[C@@H](C)[C@](O)(C=O)[C@H]2O[C@@H]2O[C@@H](CO)[C@H](O)[C@@H](O)[C@@H]2NC)[C@@H](N/C(N)=N\[H])[C@@H]1O [Streptomycin] | 1.01-1.50 | > 128 | 4 | 8 | 64 | 32 | 0.5 | 8 | 1.13-1.50 | 1.13-1.50 | Ind (Indifference (Ind)) | 1.06-1.50 | Ad (Additivity (Ad)) | 0.63-1.06 | 1.00-1.25 | Ind (Indifference (Ind)) | 1.02-1.50 | –
2 | CC[C@H]1OC(=O)[C@H](C)[C@@H](O[C@H]2C[C@@](C)(OC)[C@@H](O)[C@H](C)O2)[C@H](C)[C@@H](O[C@@H]2O[C@H](C)C[C@H](N(C)C)[C@H]2O)[C@](C)(O)C[C@@H](C)C(=O)[C@H](C)[C@@H](O)[C@]1(C)O [Erythromycin] | 1.06-1.50 | 0.125 | 0.5 | 0.125 | 128 | 0.125 | 8 | > 128 | 1.01-1.50 | 1.13-1.50 | Ind (Indifference (Ind)) | 1.06-1.50 | Ad (Additivity (Ad)) | – | 1.06-1.50 | Ad (Additivity (Ad)) | 0.75-1.00 | –
3 | CC1(C)S[C@@H]2[C@H](NC(=O)Cc3ccccc3)C(=O)N2[C@H]1C(=O)O [Penicillin G] | 0.75-1.13 | – | – | – | – | – | – | – | 1.00-1.25 | 1.00-1.25 | Ind (Indifference (Ind)) | 1.13-1.50 | Ad (Additivity (Ad)) | 0.52-1.25 | 1.00-1.25 | Ind (Indifference (Ind)) | 1.03-1.50 | Con (Conclusion) [1]: Ad (Additivity (Ad)); Minimum inhibitory concentrations (MIC) [2]: 4 µg/mL; Minimum inhibitory concentrations (MIC) [3]: 0.031 µg/mL; Minimum inhibitory concentrations (MIC) [4]: 16 µg/mL; Minimum inhibitory concentrations (MIC) [5]: 128 µg/mL; Minimum inhibitory concentrations (MIC) [6]: 0.25 µg/mL; Minimum inhibitory concentrations (MIC) [7]: 0.25 µg/mL; Minimum inhibitory concentrations (MIC) ([8]; S. aureus 101, 18 hours at 37° C.): 128 µg/mL; Con (Conclusion) [9]: Ind (Indifference (Ind)); Con (Conclusion) [10]: Ind (Indifference (Ind)); Con (Conclusion) [13]: Ind (Indifference (Ind))
4 | NC[C@H]1O[C@H](O[C@H]2[C@H](O)[C@@H](O[C@H]3O[C@H](CO)[C@@H](O)[C@H](N)[C@H]3O)[C@H](N)C[C@@H]2N)[C@H](N)C[C@@H]1O [Tobramycin] | 0.63-1.13 | 32 | 0.5 | 4 | 1 | 32 | 0.5 | > 128 | 1.01-1.50 | 0.99-1.25 | Ad (Additivity (Ad)) | 0.63-1.25 | Ad (Additivity (Ad)) | 0.52-1.13 | 1.00-1.25 | Ind (Indifference (Ind)) | 1.02-1.50 | –
